Laboratory results reported in ChEMBL document CHEMBL3779792, “Anti-proliferative evaluation of monoterpene derivatives against leukemia” (Eur J Med Chem, 2016).
Active and inactive are the calls of the source. The calls are words filed in the database; no cut-off is given here.

Tests used:
HEK293 = assay: Cytotoxicity against HEK293 cells after 72 hrs by Cell-Titer Glo assay; format: cell-based; conditions: Homo sapiens, HEK293, 72 h
[1] = Cytotoxicity against human SEM cells after 72 hrs by Cell-Titer Glo assay; format: functional, cell-based
[2] = Cytotoxicity against human NALM6 cells after 72 hrs by Cell-Titer Glo assay; format: functional, cell-based; conditions: NALM-6, 72 h
Raji = assay: Cytotoxicity against human Raji cells after 72 hrs by Cell-Titer Glo assay; format: functional, cell-based
Jurkat = assay: Cytotoxicity against human Jurkat cells after 72 hrs by Cell-Titer Glo assay; format: functional, cell-based
HepG2 = assay: Cytotoxicity against human HepG2 cells after 72 hrs by Cell-Titer Glo assay; format: functional, cell-based; conditions: HepG2, 72 h
BJ = assay: Cytotoxicity against human BJ cells after 72 hrs by Cell-Titer Glo assay; format: cell-based
NALM-6 [3] = assay: Induction of apoptosis in human NALM6 cells assessed as activated caspase3 level at 0.5 uM after 3 hrs by immunoblot analysis; format: functional, cell-based
NALM-6 [4] = assay: Induction of apoptosis in human NALM6 cells assessed as cleaved PARP level at 0.5 uM measured after 3 and 6 hrs by immunoblot analysis; format: functional, cell-based
SEM cells [5] = assay: Induction of apoptosis in human SEM cells assessed as late apoptotic cells at 1 uM measured after 24 hrs by annexin V-propidium iodide staining based flow cytometric analysis (reference value: 7.2%); format: functional
SEM cells [6] = assay: Induction of apoptosis in human SEM cells assessed as necrotic cells at 1 uM measured after 24 hrs by annexin V-propidium iodide staining based flow cytometric analysis (reference value: 0.0%); format: functional
SEM cells [7] = assay: Induction of apoptosis in human SEM cells assessed as early apoptotic cells at 1 uM measured after 24 hrs by annexin V-propidium iodide staining based flow cytometric analysis (reference value: 85.3%); format: functional
SEM cells [8] = assay: Induction of apoptosis in human SEM cells assessed as activated caspase3 levels at 0.5 uM after 6 hrs by immunoblot analysis; format: functional, cell-based
[9] = Cytotoxicity in human SEM cells assessed as cell death at 1 uM after 24 hrs; format: cell-based
NALM-6 [10] = assay: Induction of apoptosis in human NALM6 cells assessed as necrotic cells at 0.5 uM measured after 24 hrs by annexin V-propidium iodide staining based flow cytometric analysis (reference value: 0.0%); format: functional
SEM cells [11] = assay: Induction of apoptosis in human SEM cells assessed as viable cells at 1 uM measured after 24 hrs by annexin V-propidium iodide staining based flow cytometric analysis (reference value: 1.5%); format: functional; conditions: read-out: Activity
NALM-6 [12] = assay: Induction of apoptosis in human NALM6 cells assessed as cleaved PARP level at 0.5 uM measured after 12 hrs by immunoblot analysis; format: functional, cell-based
NALM-6 [13] = assay: Induction of apoptosis in human NALM6 cells assessed as late apoptotic cells at 0.5 uM measured after 24 hrs by annexin V-propidium iodide staining based flow cytometric analysis (reference value: 4.3%); format: functional
NALM-6 [14] = assay: Induction of apoptosis in human NALM6 cells assessed as early apoptotic cells at 0.5 uM measured after 24 hrs by annexin V-propidium iodide staining based flow cytometric analysis (reference value: 91.5%); format: functional
SEM cells [15] = assay: Effect on cell cycle in human SEM cells assessed as accumulation at G0/G1 phase at 1 uM after 24 hrs by propidium iodide staining based flow cytometry analysis (reference value: 45.75%); format: functional

| Structure (SMILES) | EC50 (HEK293) [µM] | EC50 [1] [µM] | EC50 [2] [µM] | EC50 (Raji) [µM] | EC50 (Jurkat) [µM] | EC50 (HepG2) [µM] | EC50 (BJ) [µM] | Activity (NALM-6 [3]) | Activity (NALM-6 [4]) | Activity (SEM cells [5]) [%] | Activity (SEM cells [6]) [%] | Activity (SEM cells [7]) [%] | Activity (SEM cells [8]) | Activity [9] | Activity (NALM-6 [10]) [%] | viability at 1 µM (SEM cells [11]) [%] | Activity (NALM-6 [12]) | Activity (NALM-6 [13]) [%] | Activity (NALM-6 [14]) [%] | Activity (SEM cells [15]) [%] |
| --- | --- | --- | --- | --- | --- | --- | --- | --- | --- | --- | --- | --- | --- | --- | --- | --- | --- | --- | --- | --- |
| COc1ccc(/C=C/[C@@](C)(/C=C/c2ccc(O)c(/C=C/C(C)=O)c2)CCC=C(C)C)cc1 | 14.6 | 8.67 | > 43.5 | > 26 | > 49 | > 52.1 | 12.3 | – | – | – | – | – | – | – | – | – | – | – | – | – |
| CN[C@@H]1C[C@H]2O[C@@](C)([C@@H]1OC)n1c3ccccc3c3c4c(c5c6ccccc6n2c5c31)C(=O)NC4 [STAUROSPORINE] | – | – | – | – | – | – | – | Active | Active | 85.3 | 0 | 2.6 | Active | Toxic | 0 | 5.5 | Active | 25 | 49 | 100 |
| C=C[C@@](C)(/C=C/c1ccc(O)cc1)CCC1OC1(C)C (stereo not given in full) | > 36.6 | > 36.6 | > 43.5 | > 22.6 | > 49 | > 52.1 | > 36.6 | – | – | – | – | – | – | – | – | – | – | – | – | – |
| C=C[C@@](C)(/C=C/c1ccc(O)cc1)CC/C=C(C)/C=C/C(=O)OCC | > 36.6 | > 36.6 | 0.815 | > 26 | > 49 | > 52.1 | > 36.6 | – | – | – | – | – | – | – | – | – | – | – | – | – |
| C=C[C@@](C)(/C=C/c1ccc(O)c(/C=C/C(=O)OCc2ccccc2)c1)CCC=C(C)C | > 36.6 | > 36.6 | > 43.5 | > 26 | > 49 | > 52.1 | > 36.6 | – | – | – | – | – | – | – | – | – | – | – | – | – |
| C=C[C@@](C)(/C=C/c1ccc(O)cc1)CC/C=C(C)/C=C/C(=O)OCc1ccccc1 | > 36.6 | > 36.6 | 36 | > 26 | > 49 | > 52.1 | > 36.6 | – | – | – | – | – | – | – | – | – | – | – | – | – |
| C=C[C@@](C)(/C=C/c1ccc(O)c(/C=C(\C)C(=O)OCC)c1)CCC=C(C)C | > 36.6 | > 36.6 | > 7.51 | > 26 | > 49 | > 52.1 | > 36.6 | – | – | – | – | – | – | – | – | – | – | – | – | – |
| C=C[C@@](C)(/C=C/c1ccc(O)cc1)CCC=O | > 36.6 | > 36.6 | > 43.5 | > 26 | > 49 | > 52.1 | > 36.6 | – | – | – | – | – | – | – | – | – | – | – | – | – |
| C=C[C@](C)(CCCC(C)C)CCc1ccc(O)cc1 | > 36.6 | > 36.6 | 27.5 | > 26 | > 49 | > 52.1 | > 36.6 | – | – | – | – | – | – | – | – | – | – | – | – | – |
| C=C[C@@](C)(/C=C/c1ccc(O)c(/C=C/c2ccc(F)cc2)c1)CCC=C(C)C | > 36.6 | > 36.6 | > 43.5 | > 26 | > 49 | > 52.1 | > 36.6 | – | – | – | – | – | – | – | – | – | – | – | – | – |
| C=C[C@@](C)(/C=C/c1ccc(O)cc1)CC/C=C/C(=O)OCc1ccccc1 | > 36.6 | > 36.6 | > 43.5 | > 26 | > 49 | > 52.1 | > 36.6 | – | – | – | – | – | – | – | – | – | – | – | – | – |
| COc1ccc(/C=C/[C@@](C)(/C=C/c2ccc(O)cc2)CCC=C(C)C)cc1 | > 36.6 | > 36.6 | > 43.5 | > 26 | > 49 | > 52.1 | > 36.6 | – | – | – | – | – | – | – | – | – | – | – | – | – |
| C=C[C@@](C)(/C=C/c1ccc(O)cc1)CCCO | > 36.6 | > 36.6 | > 43.5 | > 26 | > 49 | > 52.1 | > 36.6 | – | – | – | – | – | – | – | – | – | – | – | – | – |
| COc1ccc(/C=C/[C@@](C)(/C=C/c2ccc(O)c(/C=C/C(=O)OC(C)(C)C)c2)CCC=C(C)C)cc1 | > 36.6 | > 36.6 | > 43.5 | > 26 | > 49 | > 52.1 | > 36.6 | – | – | – | – | – | – | – | – | – | – | – | – | – |
| COc1ccc(/C=C/[C@@](C)(/C=C/c2ccc(O)c(/C=C/C(=O)c3ccccc3)c2)CCC=C(C)C)cc1 | > 36.6 | 30 | > 43.5 | > 26 | > 49 | > 52.1 | > 36.6 | – | – | – | – | – | – | – | – | – | – | – | – | – |
| C=C[C@@](C)(/C=C/c1ccc(O)cc1)CC/C=C(\C)C(=O)OCC | > 36.6 | > 36.6 | > 43.5 | > 26 | > 49 | > 52.1 | > 36.6 | – | – | – | – | – | – | – | – | – | – | – | – | – |
| C=C[C@@](C)(/C=C/c1ccc(OCc2ccccc2)cc1)CCC=C(C)C | > 36.6 | > 36.6 | > 43.5 | > 26 | > 49 | > 52.1 | > 36.6 | – | – | – | – | – | – | – | – | – | – | – | – | – |
